# Test results reported in patent US20260262643A1, “HERBICIDAL BENZOXAZINES” (FMC CORPORATION, priority 2022, published 2026).
# Columns and labels:
# blackgrass [1] = experiment: Test A preemergence; type: in vivo, Alopecurus myosuroides
# Summary of the method: (§1)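 Weeds and crops in loam–sand blend were sprayed preemergence onto soil or postemergence at 2–10 cm (one- to two-leaf stage). Test chemicals were in a non-phytotoxic solvent with surfactant. After 10 days in the greenhouse, injury was rated visually against untreated controls on a 0 (no effect) to 100 (complete control) scale.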
# corn [2] = experiment: Test A preemergence; type: in vivo, Zea mays
# Summary of the method: as §1
# foxtail, giant [3] = experiment: Test A preemergence; type: in vivo, Setaria faberi
# Summary of the method: as §1
# goosegrass [4] = experiment: Test A preemergence; type: in vivo, Eleusine indica
# Summary of the method: as §1
# kochia [5] = experiment: Test A preemergence; type: in vivo, Bassia scoparia
# Summary of the method: as §1
# oat, wild [6] = experiment: Test A preemergence; type: in vivo, Avena fatua
# Summary of the method: as §1
# pigweed, palmer [7] = experiment: Test A preemergence; type: in vivo, Amaranthus palmeri
# Summary of the method: as §1
# ragweed [8] = experiment: Test A preemergence; type: in vivo, Ambrosia artemisiifolia
# Summary of the method: as §1
# ryegrass, Italian [9] = experiment: Test A preemergence; type: in vivo, Lolium multiflorum
# Summary of the method: as §1
# soybean [10] = experiment: Test A preemergence; type: in vivo, Glycine max
# Summary of the method: as §1
# wheat [11] = experiment: Test A preemergence; type: in vivo, Triticum aestivum
# Summary of the method: as §1
# blackgrass [12] = experiment: Test A postemergence; type: in vivo, Alopecurus myosuroides
# Summary of the method: as §1
# corn [13] = experiment: Test A postemergence; type: in vivo, Zea mays; conditions: postemergence, 10 days, visual injury, 0 to 100 scale (0 no effect, 100 complete control)
# Summary of the method: as §1
# foxtail, giant [14] = experiment: Test A postemergence; type: in vivo, Setaria faberi; conditions: postemergence, 10 days, visual injury, 0 to 100 scale (0 no effect, 100 complete control)
# Summary of the method: as §1
# goosegrass [15] = experiment: Test A postemergence; type: in vivo, Eleusine indica; conditions: postemergence, 10 days, visual injury, 0 to 100 scale (0 no effect, 100 complete control)
# Summary of the method: as §1
# kochia [16] = experiment: Test A postemergence; type: in vivo, Bassia scoparia; conditions: postemergence, 10 days, visual injury, 0 to 100 scale (0 no effect, 100 complete control)
# Summary of the method: as §1
# oat, wild [17] = experiment: Test A postemergence; type: in vivo, Avena fatua; conditions: 500 g ai/ha, postemergence, 10 days, visual injury, 0 to 100 scale (0 no effect, 100 complete control)
# Summary of the method: as §1
# pigweed, palmer [18] = experiment: Test A postemergence; type: in vivo, Amaranthus palmeri; conditions: 500 g ai/ha, postemergence, 10 days, visual injury, 0 to 100 scale (0 no effect, 100 complete control)
# Summary of the method: as §1
# ragweed [19] = experiment: Test A postemergence; type: in vivo, Ambrosia artemisiifolia; conditions: 500 g ai/ha, postemergence, 10 days, visual injury, 0 to 100 scale (0 no effect, 100 complete control)
# Summary of the method: as §1
# ryegrass, Italian [20] = experiment: Test A postemergence; type: in vivo, Lolium multiflorum; conditions: 500 g ai/ha, postemergence, 10 days, visual injury, 0 to 100 scale (0 no effect, 100 complete control)
# Summary of the method: as §1
# soybean [21] = experiment: Test A postemergence; type: in vivo, Glycine max; conditions: 500 g ai/ha, postemergence, 10 days, visual injury, 0 to 100 scale (0 no effect, 100 complete control)
# Summary of the method: as §1
# wheat [22] = experiment: Test A postemergence; type: in vivo, Triticum aestivum; conditions: 500 g ai/ha, postemergence, 10 days, visual injury, 0 to 100 scale (0 no effect, 100 complete control)
# Summary of the method: as §1
# galium = experiment: Test A postemergence; type: in vivo, Galium aparine; conditions: postemergence, 10 days, visual injury, 0 to 100 scale (0 no effect, 100 complete control)
# Summary of the method: as §1
# horseweed = experiment: Test A postemergence; type: in vivo, Erigeron canadensis; conditions: postemergence, 10 days, visual injury, 0 to 100 scale (0 no effect, 100 complete control)
# Summary of the method: as §1
# barnyardgrass = experiment: Test B flooded paddy test; type: in vivo, Echinochloa crus-galli; conditions: 250 g ai/ha, Flood, 13 days, 0 to 100 scale (0 no effect, 100 complete control)
# Summary of the method: (§2)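 Each species was raised to the 2-leaf stage. At treatment, each pot received floodwater 3 cm deep, with the chemical delivered into the water. Greenhouse holding followed for 13 days, then percent control was estimated visually versus untreated pots.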
# ducksalad = experiment: Test B flooded paddy test; type: in vivo, Heteranthera limosa; conditions: 250 g ai/ha, Flood, 13 days, 0 to 100 scale (0 no effect, 100 complete control)
# Summary of the method: as §2
# rice = experiment: Test B flooded paddy test; type: in vivo, Oryza sativa; conditions: 250 g ai/ha, Flood, 13 days, 0 to 100 scale (0 no effect, 100 complete control)
# Summary of the method: as §2
# sedge, umbrella = experiment: Test B flooded paddy test; type: in vivo, Cyperus difformis; conditions: 250 g ai/ha, Flood, 13 days, 0 to 100 scale (0 no effect, 100 complete control)
# Summary of the method: as §2
# [23] = 125 g ai/ha, visual injury after 10 days, 0 to 100 scale, 0 is no effect, 100 is complete control
# [24] = 500 g ai/ha, 0 to 100 scale (0 no effect, 100 complete control), 10 days
smiles,measurement,setting,value
Cc1cccc2c1O[C@@H](C)CN2C(=O)c1cccc(-n2cnc(C(F)(F)F)n2)c1 [Compound 66],"Plant response rating, Blackgrass",blackgrass [1]; [23],70
same,"Plant response rating, Blackgrass",blackgrass [1]; [24],90
same,"Plant response rating, Corn",corn [2]; [23],30
same,"Plant response rating, Corn",corn [2]; [24],50
same,"Plant response rating, Foxtail, Giant","foxtail, giant [3]; [23]",90
same,"Plant response rating, Foxtail, Giant","foxtail, giant [3]; [24]",100
same,"Plant response rating, Goosegrass",goosegrass [4]; [23],100
same,"Plant response rating, Goosegrass",goosegrass [4]; [24],100
same,"Plant response rating, Kochia",kochia [5]; [23],10
same,"Plant response rating, Kochia",kochia [5]; [24],90
same,"Plant response rating, Oat, Wild","oat, wild [6]; [23]",30
same,"Plant response rating, Oat, Wild","oat, wild [6]; [24]",90
same,"Plant response rating, Pigweed, Palmer","pigweed, palmer [7]; [23]",50
same,"Plant response rating, Pigweed, Palmer","pigweed, palmer [7]; [24]",100
same,"Plant response rating, Ragweed",ragweed [8]; [23],0
same,"Plant response rating, Ragweed",ragweed [8]; [24],0
same,"Plant response rating, Ryegrass, Italian","ryegrass, Italian [9]; [23]",100
same,"Plant response rating, Ryegrass, Italian","ryegrass, Italian [9]; [24]",100
same,"Plant response rating, Soybean",soybean [10]; [23],30
same,"Plant response rating, Soybean",soybean [10]; [24],40
same,"Plant response rating, Wheat",wheat [11]; [23],20
same,"Plant response rating, Wheat",wheat [11]; [24],80
same,"Plant response rating, Blackgrass","blackgrass [12]; 125 g ai/ha, postemergence, 10 days, visual injury, 0 to 100 scale (0 no effect, 100 complete control)",60
same,"Plant response rating, Blackgrass","blackgrass [12]; 500 g ai/ha, Postemergence, 0 to 100 scale",90
same,"Plant response rating, Corn",corn [13]; 125 g ai/ha,0
same,"Plant response rating, Corn",corn [13]; 500 g ai/ha,70
same,"Plant response rating, Foxtail, Giant","foxtail, giant [14]; 125 g ai/ha",20
same,"Plant response rating, Foxtail, Giant","foxtail, giant [14]; 500 g ai/ha",90
same,"Plant response rating, Goosegrass",goosegrass [15]; 125 g ai/ha,10
same,"Plant response rating, Goosegrass",goosegrass [15]; 500 g ai/ha,50
same,"Plant response rating, Kochia",kochia [16]; 125 g ai/ha,30
same,"Plant response rating, Kochia",kochia [16]; 500 g ai/ha,80
same,"Plant response rating, Oat, Wild","oat, wild [17]",70
same,"Plant response rating, Pigweed, Palmer","pigweed, palmer [18]",30
same,"Plant response rating, Ragweed",ragweed [19],40
same,"Plant response rating, Ryegrass, Italian","ryegrass, Italian [20]",70
same,"Plant response rating, Soybean",soybean [21],100
same,"Plant response rating, Wheat",wheat [22],20
same,"Plant response rating, Galium",galium; 125 g ai/ha,80
same,"Plant response rating, Galium",galium; 500 g ai/ha,100
same,"Plant response rating, Horseweed",horseweed; 125 g ai/ha,0
same,"Plant response rating, Horseweed",horseweed; 500 g ai/ha,0
same,"Plant response rating, Barnyardgrass",barnyardgrass,0
same,"Plant response rating, Ducksalad",ducksalad,0
same,"Plant response rating, Rice",rice,0
same,"Plant response rating, Sedge, Umbrella","sedge, umbrella",0
